Legend:
Type in all cases: in vivo
Leptosphaeria nodorum = assay: Wheat glume blotch (LEPTNO) fungicidal activity; conditions: Parastagonospora nodorum, 24 h, 1 Day Protectant, read-out: Disease Control LEPTNO 1DP
Description: Technical grades of materials were dissolved in acetone, which were then mixed with nine volumes of water containing 110 ppm Triton X-100. The fungicide solutions were applied onto wheat seedlings using an automated booth sprayer to run-off. All sprayed plants were allowed to air dry prior to further handling. Wheat plants (variety Yuma) were grown from seed in a greenhouse in 50% mineral soil/50% soil-less Metro mix until the first leaf was fully emerged, with 7-10 seedlings per pot. These plants were inoculated with an aqueous spore suspension of Septoria tritici either prior to or after fungicide treatments. After inoculation the plants were kept in 100% relative humidity (one day in a dark dew chamber followed by two to three days in a lighted dew chamber at 20° C.) to permit spores to germinate and infect the leaf. The plants were then transferred to a greenhouse set at 20° C. for disease to develop. When disease symptoms were fully expressed on the 1st leaves of untreated plants, infection levels were assessed on a scale of 0 to 100 percent disease severity. Percent disease control was calculated using the ratio of disease severity on treated plants relative to untreated plants. Evaluation of Fungicidal Activity: Wheat Glume Blotch (Leptosphaeria Nodorum; Bayer Code […]) Wheat plants (variety Yuma) were grown from seed in a greenhouse in 50% mineral soil/50% soil-less Metro mix until the first leaf was fully emerged, with 7-10 seedlings per pot. These plants were inoculated with an aqueous spore suspension of Leptosphaeria nodorum 24 hr after fungicide treatments. After inoculation the plants were kept in 100% relative humidity (one day in a dark dew chamber followed by two days in a lighted dew chamber at 20° C.) to permit spores to germinate and infect the leaf. The plants were then transferred to a greenhouse set at 20° C. for disease to develop. Fungicide formulation, application and disease assessment followed the procedures as described in the Example A.

Venturia inaequalis = assay: Apple scab (VENTIN) fungicidal activity; conditions: 24 h, 1 Day Protectant, read-out: Disease Control VENTIN 1DP
Description: Technical grades of materials were dissolved in acetone, which were then mixed with nine volumes of water containing 110 ppm Triton X-100. The fungicide solutions were applied onto wheat seedlings using an automated booth sprayer to run-off. All sprayed plants were allowed to air dry prior to further handling. Wheat plants (variety Yuma) were grown from seed in a greenhouse in 50% mineral soil/50% soil-less Metro mix until the first leaf was fully emerged, with 7-10 seedlings per pot. These plants were inoculated with an aqueous spore suspension of Septoria tritici either prior to or after fungicide treatments. After inoculation the plants were kept in 100% relative humidity (one day in a dark dew chamber followed by two to three days in a lighted dew chamber at 20° C.) to permit spores to germinate and infect the leaf. The plants were then transferred to a greenhouse set at 20° C. for disease to develop. When disease symptoms were fully expressed on the 1st leaves of untreated plants, infection levels were assessed on a scale of 0 to 100 percent disease severity. Percent disease control was calculated using the ratio of disease severity on treated plants relative to untreated plants. Evaluation of Fungicidal Activity: Apple Scab (Venturia Inaequalis; Bayer Code […]) Apple seedlings (variety McIntosh) were grown in soil-less Metro mix, with one plant per pot. Seedlings with two expanding young leaves at the top (older leaves at bottom of the plants were trimmed) were used in the test. Plants were inoculated with a spore suspension of Venturia inaequalis 24 hr after fungicide treatment and kept in a 22° C. dew chamber with 100% RH for 48 hr, and then moved to a greenhouse set at 20° C. for disease to develop. Fungicide formulation, application and disease assessment on the sprayed leaves followed the procedures as described in the Example A.

Erysiphe cichoracearum = assay: Powdery mildew of cucumber (ERYSCI) fungicidal activity; conditions: Golovinomyces cichoracearum, 24 h, 1 Day Protectant, read-out: Disease Control ERYSCI 1DP
Description: Technical grades of materials were dissolved in acetone, which were then mixed with nine volumes of water containing 110 ppm Triton X-100. The fungicide solutions were applied onto wheat seedlings using an automated booth sprayer to run-off. All sprayed plants were allowed to air dry prior to further handling. Wheat plants (variety Yuma) were grown from seed in a greenhouse in 50% mineral soil/50% soil-less Metro mix until the first leaf was fully emerged, with 7-10 seedlings per pot. These plants were inoculated with an aqueous spore suspension of Septoria tritici either prior to or after fungicide treatments. After inoculation the plants were kept in 100% relative humidity (one day in a dark dew chamber followed by two to three days in a lighted dew chamber at 20° C.) to permit spores to germinate and infect the leaf. The plants were then transferred to a greenhouse set at 20° C. for disease to develop. When disease symptoms were fully expressed on the 1st leaves of untreated plants, infection levels were assessed on a scale of 0 to 100 percent disease severity. Percent disease control was calculated using the ratio of disease severity on treated plants relative to untreated plants. Evaluation of Fungicidal Activity: Powdery Mildew of Cucumber (Erysiphe cichoracearum; Bayer Code […]) Cucumber seedlings (variety Bush Pickle) were grown in soil-less Metro mix, with one plant per pot, and used in the test when 12 to 14 days old. Plants were inoculated with a spore suspension 24 hr following fungicide treatments. After inoculation the plants remained in the greenhouse set at 20° C. until disease was fully expressed. Fungicide formulation, application and disease assessment on the sprayed leaves followed the procedures as described in the Example A.

[1] = system: Blumeria graminis f. sp. hordei; assay: Barley powdery mildew (ERYSGH) fungicidal activity; conditions: 24 h, 1 Day Protectant, read-out: Disease Control ERYSGH 1DP
Description: Technical grades of materials were dissolved in acetone, which were then mixed with nine volumes of water containing 110 ppm Triton X-100. The fungicide solutions were applied onto wheat seedlings using an automated booth sprayer to run-off. All sprayed plants were allowed to air dry prior to further handling. Wheat plants (variety Yuma) were grown from seed in a greenhouse in 50% mineral soil/50% soil-less Metro mix until the first leaf was fully emerged, with 7-10 seedlings per pot. These plants were inoculated with an aqueous spore suspension of Septoria tritici either prior to or after fungicide treatments. After inoculation the plants were kept in 100% relative humidity (one day in a dark dew chamber followed by two to three days in a lighted dew chamber at 20° C.) to permit spores to germinate and infect the leaf. The plants were then transferred to a greenhouse set at 20° C. for disease to develop. When disease symptoms were fully expressed on the 1st leaves of untreated plants, infection levels were assessed on a scale of 0 to 100 percent disease severity. Percent disease control was calculated using the ratio of disease severity on treated plants relative to untreated plants. Evaluation of Fungicidal Activity: Barley Powdery Mildew (Blumeria Graminis f. sp. Hordei; Synonym: Erysiphe Graminis f. sp. Hordei; Bayer Code […]) Barley seedlings (variety Harrington) were propagated in soil-less Metro mix, with each pot having 8 to 12 plants, and used in the test when first leaf was fully emerged. Test plants were inoculated by dusting with infected stock plants 24 hr after fungicide treatments. After inoculation the plants were kept in a greenhouse set at 20° C. for disease to develop. Fungicide formulation, application and disease assessment on the sprayed leaves followed the procedures as described in the Example A.

[2] = system: Magnaporthe grisea; Anamorph: Pyricularia oryzae; assay: whole plant or invertebrate; conditions: 24 h, read-out: Disease Control PYRIOR 1DP

Compound: COc1ccnc(C(=O)N[C@H]2COC[C@H](Cc3ccccc3)[C@@H](OCCCc3ccccc3)[C@H](C)OC2=O)c1OCOC(C)=O [Compound 34]
- pest or weed control at 100 ppm (Leptosphaeria nodorum): 80 to 100%
- pest or weed control at 100 ppm (Venturia inaequalis): 80 to 100%
- pest or weed control at 100 ppm (Erysiphe cichoracearum): 0 to 80%
- pest or weed control at 100 ppm [1]: 80 to 100%
- pest or weed control at 100 ppm [2]: 80 to 100%

Compound: COC(=O)/C=C/O[C@@H]1[C@@H](Cc2ccccc2)COC[C@H](NC(=O)c2nccc(OC)c2OCOC(C)=O)C(=O)O[C@H]1C [Compound 36]
- pest or weed control at 100 ppm (Leptosphaeria nodorum): 80 to 100%
- pest or weed control at 100 ppm (Venturia inaequalis): 0 to 80%
- pest or weed control at 100 ppm (Erysiphe cichoracearum): 0 to 80%
- pest or weed control at 100 ppm [1]: 80 to 100%
- pest or weed control at 100 ppm [2]: 80 to 100%

Compound: COc1ccnc(C(=O)N[C@H]2COC[C@H](Cc3ccccc3)[C@@H](OC(=O)C3CC3)[C@H](C)OC2=O)c1OCOC(C)=O [Compound 38]
- pest or weed control at 100 ppm (Leptosphaeria nodorum): 80 to 100%
- pest or weed control at 100 ppm (Venturia inaequalis): 0 to 80%
- pest or weed control at 100 ppm (Erysiphe cichoracearum): 0 to 80%
- pest or weed control at 100 ppm [1]: 80 to 100%
- pest or weed control at 100 ppm [2]: 80 to 100%

Compound: COc1ccnc(C(=O)N[C@H]2COC[C@H](Cc3ccccc3)[C@@H](OC)[C@H](C)OC2=O)c1OCOC(C)=O [Compound 39]
- pest or weed control at 100 ppm (Leptosphaeria nodorum): 80 to 100%
- pest or weed control at 100 ppm (Venturia inaequalis): 0 to 80%
- pest or weed control at 100 ppm (Erysiphe cichoracearum): 0 to 80%
- pest or weed control at 100 ppm [1]: 0 to 80%
- pest or weed control at 100 ppm [2]: 80 to 100%

Compound: COc1ccnc(C(=O)N[C@H]2COC[C@H](Cc3ccccc3)[C@@H](OC3CCCC3)[C@H](C)OC2=O)c1OC(C)=O [Compound 107]
- pest or weed control at 100 ppm (Leptosphaeria nodorum): 80 to 100%
- pest or weed control at 100 ppm (Venturia inaequalis): 0 to 80%
- pest or weed control at 100 ppm (Erysiphe cichoracearum): 0 to 80%
- pest or weed control at 100 ppm [1]: 80 to 100%
- pest or weed control at 100 ppm [2]: 80 to 100%

Compound: COc1ccnc(C(=O)N[C@H]2COC[C@H](Cc3ccccc3)[C@@H](OC3CCCC3)[C@H](C)OC2=O)c1OCOC(=O)C(C)C [Compound 108]
- pest or weed control at 100 ppm (Leptosphaeria nodorum): 80 to 100%
- pest or weed control at 100 ppm (Venturia inaequalis): 80 to 100%
- pest or weed control at 100 ppm (Erysiphe cichoracearum): 0 to 80%
- pest or weed control at 100 ppm [1]: 80 to 100%
- pest or weed control at 100 ppm [2]: 80 to 100%

From patent US8835462B2, “Macrocyclic picolinamides as fungicides” (Dow AgroSciences LLC, priority 2012, dated 2014)
